Legend:
HER2 receptor = HER2 receptor (Homo sapiens, UniProt P04626); experiment: Luciferase reporters (ERK-Luc, FRE-Luc, JNK-Luc, NFkB-Luc) in HEK293 cells overexpressing HER2, treated with lapatinib; format: cell-based; conditions: 10 nM, 4 hours
Procedure: In order to identify a reporter to measure the activity of HER2 receptor, the HEK293 cells were transfected with different reporter constructs, including ERK-Luc, FRE-Luc, JNK-Luc and NFkB-Luc, in the absence or presence of HER2 expression plasmid. After 24 hours, the luciferase reporter activity of the transfected cells was measured by Nano-Glo® Luciferase Assay (Promega). […] The luciferase reporter activity of the transfected cells was measured by Nano-Glo® Luciferase Assay (Promega). […] For cell transfection experiments, HEK293 cells (ATCC) were plated at density of 4-8×10^4 cells per well (96-well plates) or 1-2×10^4 cells per well (384-well plates) in phenol red-free MEM containing 10% FBS and antibiotics. Either DNA plasmid or linear DNA was mixed with TransIT-293 transfection reagent (Mirus Bio LLC). Once cells were trypsinized, DNA transfection mix was added. The cells were then incubated for 24 or 48 hours.

L755S HER2 receptor = target: T1, L755S HER2 receptor (Homo sapiens, UniProt P04626, L755S); experiment: HER2 reporter cells transfected with linear expression cassette of L755S HER2, all-in-one method; format: cell-based; conditions: 24 hours post-transfection
T1 construct: expressed in transfected cells; host or cells: HER2 reporter cells (clone #1)
From the text: L755S corresponds to a missense mutation of HER2, which changes leucine (L) into serine (S) at amino acid position of 755. In order to functionally characterize this mutation, PCR-mediated overlapping extension was employed to construct linear expression cassette of HER2 carrying this mutation. The linear expression cassette of mutant HER2 DNA was first transfected into the reporter cells followed by treatment with NRG1 and its inhibitors using the “all-in-one” method. The luciferase reporter activity was measured 24 hours post-transfection.

P780ins HER2 receptor = target: T2, P780ins HER2 receptor (Homo sapiens, UniProt P04626, INS780GSP); experiment: HER2 reporter cells transfected with linear expression cassette of P780ins HER2, all-in-one method; format: cell-based
T2 construct: expressed in transfected cells; host or cells: HER2 reporter cells (clone #1)
From the text: P780ins corresponds to an insertion mutation of HER2, which adds 3 amino acids (GSP) after the amino acid position of […] (Proline—P). In order to functionally characterize this mutation, PCR-mediated overlapping extension was employed to construct linear expression cassette of HER2 carrying this insertion. The linear expression cassette of mutant HER2 DNA was first transfected into the reporter cells followed by treatment with NRG1 and its inhibitors using the “all-in-one” method. The luciferase reporter activity was measured 24 hours post-transfection.

T862A HER2 receptor = target: T3, T862A HER2 receptor (Homo sapiens, UniProt P04626, T862A); experiment: HER2 reporter cells transfected with linear expression cassette of T862A HER2, all-in-one method; format: cell-based; conditions: 24 hours post-transfection
T3 construct: expressed in transfected cells; host or cells: HER2 reporter cells (clone #1)
From the text: T862A corresponds to a missense mutation of HER2, which changes Threonine (T) into Alanine (A) at amino acid position of 862. In order to functionally characterize this mutation, PCR-mediated overlapping extension was employed to construct a linear expression cassette of HER2 carrying this mutation. The linear expression cassette of mutant HER2 DNA was transfected into the reporter cells followed by treatment with NRG1 and its inhibitors using the “all-in-one” method. The luciferase reporter activity was measured 24 hours post-transfection.

[1] = system: HER1, HER2 and HER3 receptors; experiment: ERK-Luc, JNK-Luc and NFkB-Luc reporters in HEK293 cells co-transfected with HER1, HER2 and HER3, treated with ligand; format: cell-based, human; conditions: ligand 6 hours; HER1, HER2, HER3 co-transfected HEK293
Procedure: In order to identify reporters to measure the activity of HER2 receptor, expression plasmids of HER1, HER2 and HER3 were co-transfected with different reporter constructs, including ERK-Luc, JNK-Luc and NFkB-Luc, into the HEK293 cells. After 24 hours, the transfected cells were treated with either EGF (HER1 receptor ligand) or NRG1 (HER3 receptor ligand) for 6 hours. The luciferase reporter activity of the transfected cells was measured by Nano-Glo® Luciferase Assay (Promega). […] JNK-Luc reporter was activated when the transfected cells were treated with either HER1 or HER3 ligand (FIG. 11B).
(§1) For cell transfection experiments, HEK293 cells (ATCC) were plated at density of 4-8×10^4 cells per well (96-well plates) or 1-2×10^4 cells per well (384-well plates) in phenol red-free MEM containing 10% FBS and antibiotics. Either DNA plasmid or linear DNA was mixed with TransIT-293 transfection reagent (Mirus Bio LLC). Once cells were trypsinized, DNA transfection mix was added. The cells were then incubated for 24 or 48 hours.

HER1 and HER2 receptors = experiment: JNK-Luc reporter in HEK293 cells with HER1 and wild-type or kinase-dead HER2, treated with EGF; format: cell-based, human; conditions: HER1 plus wild-type or kinase-dead HER2
Procedure: In order to characterize the specificity of activation of JNK-Luc reporter upon treatment of HER1 ligand, JNK-Luc was co-transfected with expression plasmids of HER1 and wild-type or kinase-dead HER2 receptors into the HEK293 cells. After 24 hours, the transfected cells were treated with EGF (HER1 receptor ligand). The luciferase reporter activity of the transfected cells was measured by Nano-Glo® Luciferase Assay (Promega). In FIG. 12, no difference was found between the cells transfected with wild-type HER2 and kinase-dead HER2.
as §1

Row | inhibition of increased reporter activities upon HER2 expression (HER2 receptor) | reporter activity after HER2 inhibitor in the presence of NRG1 (L755S HER2 receptor) | activity retained compared to the cells without the treatment of inhibitor (P780ins HER2 receptor; high concentration of lapatinib, in the presence of NRG1) | reporter activity after HER2 inhibitor in the presence of NRG1 (T862A HER2 receptor) | Molecule | reporter activity after HER2 inhibitor in the presence of NRG1 (P780ins HER2 receptor; all-in-one method, 24 hours post-transfection) | JNK-Luc reporter activation [1] | NFkB-Luc reporter activation [1] | JNK-Luc reporter activation (HER1 and HER2 receptors)
1 | did not inhibit | did not respond | more than 75% | did not respond | CS(=O)(=O)CCNCc1ccc(-c2ccc3ncnc(Nc4ccc(OCc5cccc(F)c5)c(Cl)c4)c3c2)o1 [Lapatinib] | very minor reduction of reporter activity |  |  | 
2 |  |  |  |  | EGF: HER1 receptor ligand (NSDSECPLSHDGYCLHDGVCMYIEALDKYACNCVVGYIGERCQYRDLKWWELR) |  | activated | no activation | effectively activated

From patent US11319601B2, “Cell based assay” (Medical Diagnostic Laboratories, L.L.C., priority 2017, dated 2022)
